Tests used:
RBC urea transport = details: 23° C.; cited from earlier work
UT-B = target: T1, UT-B (Homo sapiens, UniProt Q13336); assay: RBC lysis assay (human RBCs, acetamide-loaded)
T1 sequence (Q13336 1-389): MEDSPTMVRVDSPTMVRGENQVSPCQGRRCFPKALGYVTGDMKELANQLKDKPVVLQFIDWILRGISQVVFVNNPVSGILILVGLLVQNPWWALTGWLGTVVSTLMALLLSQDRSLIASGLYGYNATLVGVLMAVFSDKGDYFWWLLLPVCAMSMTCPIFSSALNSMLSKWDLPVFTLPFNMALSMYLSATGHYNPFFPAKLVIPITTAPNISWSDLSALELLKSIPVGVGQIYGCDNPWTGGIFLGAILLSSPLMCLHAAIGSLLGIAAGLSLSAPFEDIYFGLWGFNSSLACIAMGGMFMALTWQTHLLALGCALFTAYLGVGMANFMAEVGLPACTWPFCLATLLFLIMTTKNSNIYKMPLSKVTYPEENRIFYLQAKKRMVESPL
Experimental: An RBC lysis assay was developed in an automated, 96-well format high throughput format and optimized for identification and characterization of small-molecule UT-B inhibitors. Inhibition of UT-B mediated transport of urea by compounds was indicated by increased RBC lysis when urea- or acetamide-loaded RBCs were rapidly diluted into PBS (see FIG. 1).
RBC suspensions were maintained at room temperature for up to 2 hr by periodic pipette mixing. […] After 6 min incubation, 20 μL of the RBC suspension was added rapidly to each well of a 96-well black-walled plate (COSTAR, Corning, N.Y.) containing 180 μL isosmolar buffer (PBS containing 1% DMSO) in each well. Vigorous mixing was achieved by repeated pipetting.
Absorbance values were stable for at least 1 hr.
The percentage of RBC lysis in each test well of a given plate was calculated using control values from the same plate as follows: % lysis=100%(Aneg−Atest)/(Aneg−Apos), where Atest is the absorbance value from a test well. During assay optimization, some test wells were incubated with the non-specific UT-B inhibitor phloretin (0.7 mM, dissolved at 100× in DMSO stock solution) as an additional positive control.
These compounds were tested against human and mouse UT-B using the RBC lysis assay. […] EC50 was calculated by non-linear regression to the equation: % lysis=% lysismin+(% lysismax:[inh]^H)/(EC50^H+[inh]^H), where [inh] is inhibitor concentration and H is the Hill coefficient.

| SMILES | apparent affinity (RBC urea transport) | EC50 (UT-B) [nM] |
| --- | --- | --- |
| CNC(N)=O [N-methylurea] | approximately 100 mM |  |
| NC(N)=O [urea] | approximately 200 mM |  |
| NC(=O)CSc1oc(-c2ccccc2)nc1S(=O)(=O)c1ccc(Cl)cc1 [ureainh-102, 2-(4-(4-chlorophenylsulfonyl)-2-phenyloxazol-5-ylthio)acetamide] |  | 40 |
| Cc1ccc(S(=O)(=O)c2nc(-c3ccccc3)oc2SCC(N)=O)cc1 [ureainh-103, 2-(2-phenyl-4-tosyloxazol-5-ylthio)acetamide] |  | 100 |
| NC(=O)CSc1oc(-c2ccccc2)nc1S(=O)(=O)c1ccccc1 [ureainh-104, 2-(2-phenyl-4-(phenylsulfonyl)oxazol-5-ylthio)acetamide] |  | 1000 |
| Cc1ccc(S(=O)(=O)c2nc(-c3ccc(F)cc3)oc2SCC(N)=O)cc1 [ureainh-105, 2-(2-(4-fluorophenyl)-4-tosyloxazol-5-ylthio)acetamide] |  | 100 |
| NC(=O)CSc1oc(-c2ccc(F)cc2)nc1S(=O)(=O)c1ccc(Cl)cc1 [ureainh-106, 2-(4-(4-chlorophenylsulfonyl)-2-(4-fluorophenyl)oxazol-5-ylthio)acetamide] |  | 200 |
| NC(=O)CSc1oc(-c2ccc(F)cc2)nc1S(=O)(=O)c1ccc(F)cc1 [ureainh-107, 2-(2-(4-fluorophenyl)-4-(4-fluorophenylsulfonyl)oxazol-5-ylthio)acetamide] |  | 6000 |
| NC(=O)CSc1oc(-c2ccc(F)cc2)nc1S(=O)(=O)c1ccccc1 [ureainh-108, 2-(2-(4-fluorophenyl)-4-(phenylsulfonyl)oxazol-5-ylthio)acetamide] |  | 15000 |
| Cc1ccc(-c2nc(S(=O)(=O)c3ccc(Br)cc3)c(SCC(N)=O)o2)cc1 [ureainh-109, 2-(4-(4-bromophenylsulfonyl)-2-p-tolyloxazol-5-ylthio)acetamide] |  | 200 |
| Cc1ccc(-c2nc(S(=O)(=O)c3ccc(C)cc3)c(SCC(N)=O)o2)cc1 [ureainh-110, 2-(2-p-tolyl-4-tosyloxazol-5-ylthio)acetamide] |  | 1000 |
| Cc1ccc(-c2nc(S(=O)(=O)c3ccc(Cl)cc3)c(SCC(N)=O)o2)cc1 [ureainh-111, 2-(4-(4-chlorophenylsulfonyl)-2-p-tolyloxazol-5-ylthio)acetamide] |  | 1000 |
| Cc1ccc(-c2nc(S(=O)(=O)c3ccccc3)c(SCC(N)=O)o2)cc1 [ureainh-112, 2-(4-(phenylsulfonyl)-2-p-tolyloxazol-5-ylthio)acetamide] |  | 15000 |
| NC(=O)CSc1oc(-c2cccs2)nc1S(=O)(=O)c1ccc(Cl)cc1 [ureainh-113, 2-(4-(4-chlorophenylsulfonyl)-2-(thiophen-2-yl)oxazol-5-ylthio)acetamide] |  | 20 |
| Cc1ccc(S(=O)(=O)c2nc(-c3cccs3)oc2SCC(N)=O)cc1 [ureainh-114, 2-(2-(thiophen-2-yl)-4-tosyloxazol-5-ylthio)acetamide] |  | 500 |
| NC(=O)CSc1oc(-c2cccs2)nc1S(=O)(=O)c1ccc(F)cc1 [ureainh-115, 2-(4-(4-fluorophenylsulfonyl)-2-(thiophen-2-yl)oxazol-5-ylthio)acetamide] |  | 600 |
| NC(=O)CSc1oc(-c2cccs2)nc1S(=O)(=O)c1ccccc1 [ureainh-116, 2-(4-(phenylsulfonyl)-2-(thiophen-2-yl)oxazol-5-ylthio)acetamide] |  | 1000 |

| SMILES | apparent affinity (RBC urea transport) | EC50 (UT-B) [nM] |
| --- | --- | --- |
| NC(=O)CSc1oc(-c2ccco2)nc1S(=O)(=O)c1ccc(Cl)cc1 [ureainh-117, 2-(4-(4-chlorophenylsulfonyl)-2-(furan-2-yl)oxazol-5-ylthio)acetamide] |  | 100 |
| NC(=O)CSc1oc(-c2ccco2)nc1S(=O)(=O)c1ccc(Br)cc1 [ureainh-118, 2-(4-(4-bromophenylsulfonyl)-2-(furan-2-yl)oxazol-5-ylthio)acetamide] |  | 200 |
| Cc1ccc(S(=O)(=O)c2nc(-c3ccco3)oc2SCC(N)=O)cc1 [ureainh-119, 2-(2-(furan-2-yl)-4-tosyloxazol-5-ylthio)acetamide] |  | 1000 |
| O=S(=O)(c1ccc(Cl)cc1)c1nc(-c2ccccc2F)oc1NCc1ccccc1 [ureainh-120, N-benzyl-4-(4-chlorophenylsulfonyl)-2-(2-fluorophenyl)oxazol-5-amine] |  | 1000 |
| O=C(CSc1oc(-c2ccccc2)nc1S(=O)(=O)c1ccc(Br)cc1)NCc1ccco1 [ureainh-121, 2-(4-(4-bromophenylsulfonyl)-2-phenyloxazol-5-ylthio)-N-(furan-2-ylmethyl)acetamide] |  | 4000 |
| O=C(CSc1oc(-c2ccccc2)nc1S(=O)(=O)c1ccc(Cl)cc1)NCc1ccco1 [ureainh-122, 2-(4-(4-chlorophenylsulfonyl)-2-phenyloxazol-5-ylthio)-N-(furan-2-ylmethyl)acetamide] |  | 15000 |
| CN(C)c1oc(-c2ccccc2Cl)nc1S(=O)(=O)c1ccccc1 [ureainh-123, 2-(2-chlorophenyl)-N,N-dimethyl-4-(phenylsulfonyl)oxazol-5-amine] |  | 5000 |
| O=S(=O)(c1ccccc1)c1nc(-c2ccccc2F)oc1N1CCOCC1 [ureainh-124, 4-(2-(2-fluorophenyl)-4-(phenylsulfonyl)oxazol-5-yl)morpholine] |  | 7000 |
| Cc1ccc(S(=O)(=O)c2nc(-c3ccccc3Cl)oc2N2CCOCC2)cc1 [ureainh-125, 4-(2-(2-chlorophenyl)-4-tosyloxazol-5-yl)morpholine] |  | 11000 |
| COc1ccccc1-c1nc(S(=O)(=O)c2ccccc2)c(N2CCCCCC2)o1 [ureainh-126, 5-(azepan-1-yl)-2-(2-methoxyphenyl)-4-(phenylsulfonyl)oxazole] |  | 10000 |
| Cc1ccc(-c2nc(S(=O)(=O)c3ccccc3)c(N3CCCCCC3)o2)cc1 [ureainh-127, 5-(azepan-1-yl)-4-(phenylsulfonyl)-2-p-tolyloxazole] |  | 10000 |
| O=S(=O)(c1ccccc1)c1nc(-c2ccc(F)cc2)oc1N1CCCCCC1 [ureainh-128, 5-(azepan-1-yl)-2-(4-fluorophenyl)-4-(phenylsulfonyl)oxazole] |  | 10000 |
| CSc1oc(-c2ccco2)nc1S(=O)(=O)c1ccc(Cl)cc1 [ureainh-129, 4-(4-chlorophenylsulfonyl)-2-(furan-2-yl)-5-(methylthio)oxazole] |  | 20000 |
| CSc1[nH]c(-c2ccc(C)cc2)nc1S(=O)(=O)c1ccccc1 [ureainh-130, 5-(methylthio)-4-(phenylsulfonyl)-2-p-tolyl-1H-imidazole] |  | 2000 |
| Cc1ccc(S(=O)(=O)c2nc(-c3ccccc3)[nH]c2S)cc1 [ureainh-131, 2-phenyl-4-tosyl-1H-imidazole-5-thiol] |  | 6000 |
| O=C(Sc1[nH]c(-c2ccccc2)nc1S(=O)(=O)c1ccccc1)c1ccccc1 [ureainh-132, S-2-phenyl-4-(phenylsulfonyl)-1H-imidazol-5-yl benzothioate] |  | 7000 |
